In patent US12146142B2, “Methods for improving genome engineering and regeneration in plant II” (KWS SAAT SE & Co. KGaA, priority 2018, dated 2024):

Key:
[1] = system: maize A188 immature embryos; test: Embryogenic structure induction after transient co-bombardment of boost gene constructs; assay type: cell-based; conditions: 1 month after bombardment, co-bombarded with Tdt (FIG. 12)
Experimental: At 9-12 days post pollination, maize ears (i.e. A188 or Hi II) with immature embryos having a size of 0.8 to 1.8 mm, preferably 1.0-1.5 mm, were harvested. The ears were sterilized with 70% ethanol for 10-15 minutes. After brief air drying in a laminar hood, the top ˜⅓ of the kernels were removed from the ears with a shark scalpel, and the immature embryos were pulled out of the kernels carefully with a spatula. The fresh isolated embryos were placed onto the bombardment target area in an osmotic medium plate (see below) with scutellum-side up. The plates were wrapped with parafilm and incubated at 25° C. in the dark for 4 hours before bombardment. […]
After bombardment, the embryos remained on the osmotic medium for another 16 hours. Transient transformation was examined using a fluorescence microscope for the tDT expression at excitation maximum 554 nm and emission maximum 581 nm 16-20 hours after bombardment. The embryos with dense fluorescent signals under a fluorescence microscope (FIG. 9) were selected and transferred from N6OSM onto a N6-5Ag plate (˜15 embryos per plate) with scutellum-face-up for callus induction (see below). […]
The embryos with dense fluorescent signals under a fluorescence microscope (FIG. 9) were selected and transferred from N6OSM onto N6-5Ag for embryonic callus induction. […] Embryogenic callus induction was monitored by observation under a dissection microscope. […]

maize genotype A188 = test: Regeneration of transgenic plants after stable integration of boost gene constructs including Pat-Tdt; assay type: cell-based; conditions: construct including Pat-Tdt
Text: This strong boost effect on the level of the embryo was also effective to the efficiency of regeneration of whole transgenic plant.

[2] = system: maize Hi II immature embryos; test: Stable transformation frequency of co-delivered tDT report gene without selection; assay type: cell-based; conditions: transient expression, 10 days after co-bombardment
Experimental: Maize embryo preparation, transient bombardment, and embryonic callus induction are described in Examples 1 and 2. The embryos were cultured in N6-5Ag medium at 27° C. in the dark for 14 days. tDT fluorescence was used to monitor embryogenic callus induction and stable transformation by observation under a fluorescent microscope. Specifically, the boost effect was measured by its capability to increase transformation frequency (TF) of the tDT report gene […] after bombardment without a selection.
The strong and uniformed tDT fluorescent signals from the emerging embryonic structures in FIG. 14 indicated integration and stable transformation of tDT gene. Stable transformation frequency is defined as the number of embryos with at least one stable tDT fluorescent structures induced from 100 embryos initially used. Stable transformation frequency was measured 10 days after bombardment.

maize Hi II genotype = test: Stable transformation of boost gene in Hi II genotype and appearance of the transgenic plants; assay type: in vivo
Text: Stable transformation of ZmPLT7 gene in Hi II genotype was successful.

maize A188 plants = test: Phenotype of adult plants regenerated from stable transformation of A188; assay type: in vivo; conditions: stable transgenic integration, A188, compared to normal A188 plants (FIG. 13)
maize WUS2 promoter = test: Maize WUS2 promoter tDT report construct co-bombarded with boost factor; assay type: cell-based; conditions: for activation of maize WUS2 promoter / gene: transient co-bombardment in immature embryos and leaves
Text: Homeobox domain transcriptional factor WUSCHEL (WUS) plays an important role in establishing and maintaining of shoot meristem. To identify boost factors that promote endogenous WUS2 expression, the maize WUSCHEL 2 promoter report construct (pAMK-ZmWUS2-tDT-noT) (SEQ ID NO: 29; FIG. 16) was used to illustrate maize WUS2 promoter activity. The maize WUS2 promoter (pZmWUS2) drove expression of the tDT report gene in this report construct (FIG. 16). The WUS2 promoter report construct was co-bombarded with boost factors individually in maize immature embryos and leaf segments.
Fresh leaf segments of 1-2 cm in length were prepared from the in vitro-cultured maize A188 seedling of 10-14 days old, and placed on the Osmotic medium with abaxial side up for 4 hours. For co-bombardment, two plasmids (100 ng of ZmWUS2 promoter report (FIG. 16) and 100 ng of boost construct, e.g. TaRKD4 (FIG. 5)) were premixed and coated onto 100 μg of gold particles size 0.4 μm. Immature embryo preparation, bombardment, and post-bombardment culturing were carried out as described in Example 1 and Example 2. Red fluorescence showing tDT expression was monitored using a fluorescent microscope started at 16 hours after bombardment.

[3] = A188 leaf segments, after bombardment, co-bombarded with pZmWUS2 report

Substance	quantification of embryonic structures with Tdt formation per embryo [1]	efficiency of regeneration of transgenic plants (maize genotype A188)	effect on stable transformation of co-delivered tDT report gene [2]	stable transformation of the boost gene (maize Hi II genotype)	appearance of transgenic plants (maize Hi II genotype; single construct, compared to normal A188 plants (FIG. 15))	phenotype of produced transgenic plants (maize A188 plants)	time at which tDT signal peaked (maize WUS2 promoter; [3])	time at which tDT signal was detected (maize WUS2 promoter; [3])	tDT red fluorescent signal (maize WUS2 promoter; immature embryos, 44 hours after bombardment, compared to WUS promoter reporter only (weak signals))	activation of maize WUS2 promoter / gene (maize WUS2 promoter)	activation of maize WUS2 promoter / gene (maize WUS2 promoter; listed as TaRKD4)
ZmPLT7: maize PLT7 gene expression construct driven by strong constitutive Brachypodium EF1 promoter (SEQ ID NO: 27; cDNA SEQ ID NO: 3)	slightly increased amount/development of embryonic structures per embryo	no transgenic plants have been produced successfully	promotes stable transformation frequency	successful	comparable appearance than the normal A188 maize plants						
ZmWUS2: maize WUS2 gene expression construct driven by strong constitutive Brachypodium EF1 promoter (SEQ ID NO: 28; cDNA SEQ ID NO: 1)	slightly increased amount/development of embryonic structures per embryo	transgenic plants at a low level of efficiency				without any detrimental phenotype					
wheat RKD4: wheat RKD4 gene, maize-codon optimized, expression construct driven by Brachypodium EF1 promoter (SEQ ID NO: 34)							around 44 hours	around 36 hours	extremely strong red fluorescent signals	strongly activate maize WUS2 genes	activates maize WUS2 promoter
